The values that follow come from ChEMBL document CHEMBL1153297, “Discovery of non-peptidergic MrgX1 and MrgX2 receptor agonists and exploration of an initial SAR using solid-phase synthesis” (Bioorg Med Chem Lett, 2009).

Activity calls are given as the source filed them. No cut-off for these calls is given here. Bridge positions count the residues as written; N and C are the ends. Square brackets hold non-standard residues; d marks the D form. Peptide text beside a SMILES is read from it.

The target of data set [1] is T1, Mas-related G-protein coupled receptor member X1 (Homo sapiens, UniProt Q96LB2). As to the kind of experiment: Agonist activity at human MrgX1 receptor. The data set is classed as functional.
Data set [2] has as its target T1, Mas-related G-protein coupled receptor member X1. Put plainly: Agonist activity at human MrgX1 receptor at 10 uM relative to BAM22. It counts as functional.
Data set [3] addresses T2, Mas-related G-protein coupled receptor member X2 (Homo sapiens, UniProt Q96LB1).
T2 sequence (Q96LB1 whole entry): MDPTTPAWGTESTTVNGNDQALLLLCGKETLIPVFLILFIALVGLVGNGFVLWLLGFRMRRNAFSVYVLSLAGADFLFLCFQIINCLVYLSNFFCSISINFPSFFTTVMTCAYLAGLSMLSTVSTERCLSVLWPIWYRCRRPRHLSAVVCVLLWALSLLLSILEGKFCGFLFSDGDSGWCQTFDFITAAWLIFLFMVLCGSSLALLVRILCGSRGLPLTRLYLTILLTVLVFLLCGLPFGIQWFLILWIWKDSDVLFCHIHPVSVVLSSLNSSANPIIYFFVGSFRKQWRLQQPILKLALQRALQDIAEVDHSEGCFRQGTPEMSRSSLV
Put plainly: Agonist activity at human MrgX2 receptor. The data set is classed as functional.

In data set [4] the target is T3, Mas-related G-protein coupled receptor member X2 (Homo sapiens) (UniProt Q96LB1).
T3 sequence (whole entry): T2 sequence (Q96LB1 whole entry)
As to the kind of experiment: Agonist activity at human MrgX2 receptor at 10 uM relative to cortistatin-14. The data set is classed as functional.

Data set [5] is described as follows: Agonist activity at monkey MrgX1 receptor. It counts as functional, Macaca mulatta.
Data set [6] is filed under the species Macaca mulatta. As to the kind of experiment: Agonist activity at monkey MrgX1 receptor at 10 uM relative to BAM22. It counts as functional.
Data set [7] in a line: Agonist activity at monkey MrgX2 receptor. The data set is classed as functional, Macaca mulatta.
The species entered for data set [8] is Macaca mulatta. As to the kind of experiment: Agonist activity at monkey MrgX2 receptor at 10 uM relative to cortistatin-14. The data set is classed as functional.
Data set [9] addresses T1, Mas-related G-protein coupled receptor member X1. As to the kind of experiment: Agonist activity at MrgX1 receptor by calcium mobilization assay. The data set is classed as functional.
Data set [10] is described as follows: Metabolic stability in human liver microsome assessed as intrinsic clearance. It counts as ADME. The conditions noted are these: liver microsomes.

T1 sequence (Q96LB2 whole entry): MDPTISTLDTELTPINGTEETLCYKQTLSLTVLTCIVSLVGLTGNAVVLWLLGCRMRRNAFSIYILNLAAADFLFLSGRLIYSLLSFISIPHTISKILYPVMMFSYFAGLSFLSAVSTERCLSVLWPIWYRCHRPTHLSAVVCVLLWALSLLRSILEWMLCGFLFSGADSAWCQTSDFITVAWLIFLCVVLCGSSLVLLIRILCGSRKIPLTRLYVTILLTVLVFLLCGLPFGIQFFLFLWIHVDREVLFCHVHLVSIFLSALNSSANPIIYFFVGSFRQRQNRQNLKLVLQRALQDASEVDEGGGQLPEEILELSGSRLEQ

In the case of `CCC(C)[C@H]1C(=O)Nc2ccc(N3CCC(NC(C)=O)C3)cc2-c2nc3cc(C(=O)NCc4cccc(C(F)(F)F)c4)ccc3n21` (stereo partly specified), the values for the EC50 in data set [1] and in [3] were 316 nM and 1260 nM, respectively. Besides, the Efficacy came to 129% in data set [2], 41% in data set [4], 124% in [6] and 27% in data set [8]. The figures for the pEC50 in data set [5] and in data set [7] were 6.4 and 5.7, respectively.
In turn, `CC(C)[C@H]1C(=O)Nc2ccc(NCCN3CCCCC3)cc2-c2nc3cc(C(=O)N4CCN(c5ccc(F)cc5)CC4)ccc3n21` gave an EC50 in data set [1] of 1260 nM. Moreover, the Efficacy came to 94% in data set [2] and 57% in [6]. Also, the Efficacy entry in data set [4] and in [8] was “inactive” throughout. In addition, the pEC50 in data set [5] is given as 6.
The compound `CC(C)[C@H]1C(=O)Nc2ccc(NCCCN(C)C)cc2-c2nc3cc(C(=O)N4CCN(c5ccc(F)cc5)CC4)ccc3n21` showed an EC50 in [1] of 631 nM. The Efficacy in [2] stood at 108%; in [4], 60%; in data set [6], 102%. The compound further had a pEC50 in data set [5] of 5.8. Besides, the Efficacy entry in data set [8] is “inactive”.
Consider `CC(C)[C@H]1C(=O)Nc2ccc(N3CCN(Cc4ccccc4)CC3)cc2-c2nc3cc(C(=O)N(C)C4CCN(C)CC4)ccc3n21`, for which the Efficacy result in data set [2] and in data set [6] was “inactive” in each case. The compound further gave an EC50 in data set [3] of 398 nM. The results for the Efficacy in data set [4] and in data set [8] were 216% and 133%, respectively. This compound yielded a pEC50 in data set [7] of 6.7. The result in data set [9] was Active. For the same compound, in data set [10], the microsomal CLint came to 5 µL/min/mg.
Regarding `CCC(C)[C@H]1C(=O)Nc2ccc(NCCOCCOCCN)cc2-c2nc3cc(C(=O)NCc4cccc(C(F)(F)F)c4)ccc3n21` (stereo partly specified), the EC50 in data set [1] was 316 nM. Further, the Efficacy worked out at 135% in data set [2] and 126% in [6]. The Efficacy entry in data set [4] and in [8] was “inactive” each time. In data set [5], this compound returned a pEC50 of 6.1.
As for `CC(C)[C@H]1C(=O)Nc2ccc(NC3CCCCCC3)cc2-c2nc3cc(C(=O)N4CCCN(C)CC4)ccc3n21`, the Efficacy result in [2] and in data set [6] was “inactive” in each case. The same compound gave an EC50 in [3] of 316 nM. In addition, the Efficacy in data set [4] is 110%; in [8], 50%. Also, the pEC50 in data set [7] is reported as 6.4.
As for `CCC(C)[C@H]1C(=O)Nc2ccc(NCCN3CCCCC3)cc2-c2nc3cc(C(=O)NCc4cccc(C(F)(F)F)c4)ccc3n21` (stereo partly specified), the figures for the EC50 in data set [1] and in data set [3] were 200 nM and 2000 nM, respectively. Moreover, the values for the Efficacy in data set [2], in [4] and in [6] were 133%, 28% and 127%, respectively. In data set [5], this compound displayed a pEC50 of 6.1. Moreover, the Efficacy entry in data set [8] is “inactive”.
For the compound `CC(C)[C@H]1C(=O)Nc2ccc(NCc3ccccc3)cc2-c2nc3cc(C(=O)N(C)C4CCN(C)CC4)ccc3n21`, in [2], the Efficacy result was “inactive”. This compound had an EC50 in data set [3] of 158 nM. The compound further showed an Efficacy in data set [4] of 87%.
Regarding `CCC(C)[C@H]1C(=O)Nc2ccc(NCCCN(C)C)cc2-c2nc3cc(C(=O)NCc4cccc(C(F)(F)F)c4)ccc3n21` (stereo partly specified), the EC50 in data set [1] was 63.1 nM; in [3], 631 nM. For the same compound, the Efficacy in data set [2] is 147%; in data set [4] it was 103%; in data set [6], 157%; in data set [8] it was 85%. In addition, the pEC50 in data set [5] worked out at 6.1; in data set [7], 5.4.
Regarding `C[C@@H](O)[C@@H]1NC(=O)[C@@H](CCCCN)NC(=O)[C@H](Cc2c[nH]c3ccccc23)NC(=O)[C@H](Cc2ccccc2)NC(=O)[C@H](Cc2ccccc2)NC(=O)[C@H](CC(N)=O)NC(=O)[C@H](CCCCN)NC(=O)[C@@H](NC(=O)[C@@H]2CCCN2)CSSC[C@@H](C(=O)N[C@@H](CCCCN)C(=O)O)NC(=O)[C@H](CO)NC(=O)[C@H](CO)NC(=O)[C@@H](Cc2ccccc2)NC1=O` [CORTISTATIN-14] (H-PCKNFFW[dK]T[dF]SSCK-OH; disulfide 2-13), the Efficacy result in data set [2] and in data set [6] was “inactive” in each case. In addition, the Efficacy came to 100% in data set [4] and 86% in [8]. In data set [7], this compound showed a pEC50 of 6.1.
In data set [3], `C[C@@H](O)[C@@H]1NC(=O)[C@H](CCCCN)NC(=O)[C@H](Cc2c[nH]c3ccccc23)NC(=O)[C@H](Cc2ccccc2)NC(=O)[C@H](Cc2ccccc2)NC(=O)[C@H](CC(N)=O)NC(=O)[C@H](CCCCN)NC(=O)[C@@H](NC(=O)[C@@H]2CCCN2)CSSC[C@@H](C(=O)N[C@@H](CCCCN)C(=O)O)NC(=O)[C@H](CO)NC(=O)[C@H](CO)NC(=O)[C@H](Cc2ccccc2)NC1=O` [CORTISTATIN-14] (H-PCKNFFWKTFSSCK-OH; disulfide 2-13) showed a half-maximal effective concentration (EC50) of 501 nM.
Compound `CC(=O)NC1CCN(c2ccc3c(c2)-c2nc4cc(C(=O)N5CCN(c6ccc(F)cc6)CC5)ccc4n2[C@@H](C(C)C)C(=O)N3)C1` (stereo partly specified) had an EC50 in data set [1] of 2510 nM. The Efficacy in data set [2] worked out at 98%; in data set [6] it was 89%. The Efficacy result in data set [4] and in data set [8] was “inactive” throughout. The compound also gave a pEC50 in data set [5] of 5.6.
Turning to `CSCC[C@H](NC(=O)[C@H](Cc1ccccc1)NC(=O)CNC(=O)CNC(=O)[C@@H](N)Cc1ccc(O)cc1)C(=O)N[C@@H](CCCNC(=N)N)C(=O)N[C@@H](CCCNC(=N)N)C(=O)N[C@H](C(=O)NCC(=O)N[C@@H](CCCNC(=N)N)C(=O)N1CCC[C@H]1C(=O)N[C@@H](CCC(=O)O)C(=O)N[C@@H](Cc1c[nH]c2ccccc12)C(=O)N[C@@H](Cc1c[nH]c2ccccc12)C(=O)N[C@@H](CCSC)C(=O)N[C@@H](CC(=O)O)C(=O)N[C@@H](Cc1ccc(O)cc1)C(=O)N[C@@H](CCC(N)=O)C(=O)N[C@@H](CCCCN)C(=O)N[C@@H](CCCNC(=N)N)C(=O)N[C@@H](Cc1ccc(O)cc1)C(=O)NCC(=O)O)C(C)C`, the EC50 in [1] is 794 nM. Also, the Efficacy was found to be 100% in data set [2] and 50% in data set [6]. Further, the Efficacy entry in data set [4] and in data set [8] was “inactive” throughout. The compound further registered a pEC50 in data set [5] of 4.5.
